In ChEMBL document CHEMBL5131397, “Discovery and Optimization of Pyrazole Amides as Inhibitors of ELOVL1” (J Med Chem, 2021):
Calls of active or inactive are those of the source. The calls are words filed in the database; no cut-off is given here.

Legend:
[1] = Volume of distribution at steady state in Sprague-Dawley rat at 1 mg/kg, iv upto 48 hrs by LC/MS/MS analysis; type: ADME, organism-based; details: in vivo, read-out: Vdss
[2] = Toxicity in juvenile Sprague-Dawley rat assessed as ocular inflammation at 5 to 75 mg/kg/day, po treatment started from postnatal day 18 to 114 days; type: organism-based; details: in vivo, dose lower 5 mg/kg/day, time lower 18 day, dose upper 75 mg/kg/day, time upper 114 day
[3] = biological target: T1, Adenosine receptor A3 (Homo sapiens) (UniProt P0DMS8); test: Inhibition of Adenosine A3 Receptor (unknown origin) at 10 uM
T1 sequence (whole entry): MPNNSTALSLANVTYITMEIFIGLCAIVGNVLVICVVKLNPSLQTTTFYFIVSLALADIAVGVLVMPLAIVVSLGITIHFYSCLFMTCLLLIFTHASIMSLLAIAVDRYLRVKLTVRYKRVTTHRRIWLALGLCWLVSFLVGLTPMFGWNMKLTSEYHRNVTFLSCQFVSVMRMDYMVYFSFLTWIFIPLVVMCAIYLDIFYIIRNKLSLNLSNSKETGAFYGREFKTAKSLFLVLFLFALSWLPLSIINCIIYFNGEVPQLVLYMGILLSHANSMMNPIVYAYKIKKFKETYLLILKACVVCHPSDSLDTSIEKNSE

[4] = Toxicity in Sprague-Dawley rat assessed as decrease in body weight at 5 to 50 mg/kg/day, po administered for 8 weeks; type: organism-based; details: in vivo, 1344 h, dose 5-50 mg/kg/day
[5] = Clearance in Cynomolgus monkey at 1 mg/kg, iv upto 48 hrs by LC/MS/MS analysis; type: ADME, organism-based, Macaca fascicularis; details: in vivo
[6] = biological target: T2, Very long chain fatty acid elongase 4 (Homo sapiens, UniProt Q9GZR5); test: Inhibition of ELOVL4 (unknown origin) in presence of C26-acyl-CoA by radiometric enzyme assay
T2 sequence (Q9GZR5 whole entry): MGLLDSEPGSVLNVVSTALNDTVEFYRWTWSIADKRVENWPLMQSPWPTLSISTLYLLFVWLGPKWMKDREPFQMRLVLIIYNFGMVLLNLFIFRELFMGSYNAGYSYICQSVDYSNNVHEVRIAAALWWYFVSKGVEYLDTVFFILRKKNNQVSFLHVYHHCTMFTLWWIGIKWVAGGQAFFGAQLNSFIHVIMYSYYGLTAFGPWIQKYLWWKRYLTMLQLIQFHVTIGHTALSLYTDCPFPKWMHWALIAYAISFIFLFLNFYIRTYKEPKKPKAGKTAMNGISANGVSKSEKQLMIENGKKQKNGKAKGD

Mus musculus = test: Reduction in C26:0/C16:0 LPC level in ABCD1 knock out mouse CNS at 1 to 10 mg/kg, po qd measured after 2 months of dosing by LC-MS/MS analysis; type: functional, organism-based; details: dose 1-10 mg/kg
[7] = biological target: Rho-associated protein kinase 1 (Homo sapiens) (UniProt Q13464); test: Inhibition of ROCK 1 (unknown origin) at 10 uM
[8] = biological target: T3, Very long chain fatty acid elongase 1 (Homo sapiens, UniProt Q9BW60); test: Inhibition of ELOVL1 in human HEK293 cells assessed as reduction of C26:0 VLCFA synthesis incubated for 48 hrs by cellular assay; type: cell-based
T3 sequence (Q9BW60 whole entry): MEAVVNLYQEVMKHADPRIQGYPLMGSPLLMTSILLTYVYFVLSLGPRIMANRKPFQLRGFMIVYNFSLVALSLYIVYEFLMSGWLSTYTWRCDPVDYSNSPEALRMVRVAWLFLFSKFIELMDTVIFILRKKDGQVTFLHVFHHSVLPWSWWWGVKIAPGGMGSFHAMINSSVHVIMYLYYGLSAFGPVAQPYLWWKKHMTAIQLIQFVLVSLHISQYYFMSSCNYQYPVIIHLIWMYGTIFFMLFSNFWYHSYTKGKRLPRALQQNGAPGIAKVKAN

[9] = Toxicity in Cynomolgus monkey assessed as ataxia at 50 mg/kg/day, po administered for 14 days; type: organism-based, Macaca fascicularis; details: in vivo, 336 h, time 14 day
[10] = Half life in Sprague-Dawley rat at 1 mg/kg, iv upto 48 hrs by LC/MS/MS analysis; type: ADME, organism-based; details: in vivo
Fibroblast [11] = test: Reduction in C26:0/C16:0 lysophosphatidyl choline levels in primary human CALD patient-derived fibroblast incubated for 48 hrs; type: functional, cell-based
Fibroblast [12] = test: Reduction in C26:0/C16:0 lysophosphatidyl choline levels in healthy donor-derived human fibroblast incubated for 48 hrs; type: functional, cell-based
[13] = biological target: T3, Very long chain fatty acid elongase 1; test: Inhibition of ELOVL1 in AMN 2 patient-derived fibroblast assessed as reduction of C26:0 VLCFA synthesis incubated for 48 hrs by cellular assay; type: cell-based
HepG2 = test: Cytotoxicity against human HepG2 cells assessed as decrease in intracellular ATP levels incubated for 72 hrs by Cell Titer-Glo luminescence assay; type: functional; details: read-out: TC50 (the source's name)
[14] = Reduction in C26:0 LPC level in ABCD1 knock out mouse blood assessed as fold increase at 0.5 to 32 mg/kg, po qd for 105 days by LC-MS/MS analysis; type: functional; details: dose 0.5-32 mg/kg, time 105 day
[15] = Toxicity in Cynomolgus monkey assessed as neurological signs of convulsions at 50 mg/kg/day, po administered for 14 days; type: organism-based, Macaca fascicularis; details: in vivo, 336 h, time 14 day
[16] = Increase in C20:0/C16:0 total VLCFA levels in ABCD1 knock out mouse CNS at 1 to 10 mg/kg, po qd measured after 3 months of dosing by LC-MS/MS analysis; type: functional; details: dose 1-10 mg/kg, 2190 h
[17] = Reduction in C26:0 LPC level in ELOVL-1 KO clonal human HEK-293T cells in presence of 13C-labeled acetate measured after 48 hrs by mass spectroscopy relative to control; type: functional; parameters: scale not given: the % may be the effect or the level left
[18] = Toxicity in Cynomolgus monkey assessed as skin lesions at 5 to 50 mg/kg/day, po administered for 14 days; type: organism-based, Macaca fascicularis; details: in vivo, 336 h, dose 5-50 mg/kg/day, time 14 day
[19] = Toxicity in Sprague-Dawley rat assessed as ocular hyperplasia at 5 mg/kg/day, po administered for 8 weeks by microscopic observation analysis; type: organism-based; details: in vivo, 1344 h
[20] = Reduction in C26:0 LPC level in wild-type C57BL/6 mouse blood at 2 to 32 mg/kg, po qd for 105 days by LC-MS/MS analysis relative to control; type: functional; parameters: scale not given: the % may be the effect or the level left; details: dose 2-32 mg/kg, time 105 day
[21] = Half life in Beagle dog at 0.5 mg/kg, iv upto 48 hrs by LC/MS/MS analysis; type: ADME, organism-based, Canis lupus familiaris; details: in vivo
[22] = Reduction in C26:0/C16:0 LPC level in ABCD1 knock out mouse CNS at 4 mg/kg, po qd measured after 6 months of dosing by LC-MS/MS analysis; type: functional; parameters: scale not given: the % may be the effect or the level left; details: 4380 h
[23] = Reduction in C26:0 LPC level in Cynomolgus monkey plasma at 15 mg/kg, po qd for 13 weeks by LC-MS/MS analysis; type: functional, Macaca fascicularis; parameters: scale not given: the % may be the effect or the level left
[24] = Half life in Cynomolgus monkey at 1 mg/kg, iv upto 48 hrs by LC/MS/MS analysis; type: ADME, organism-based, Macaca fascicularis; details: in vivo

Sequence of Rho-associated protein kinase 1 (Homo sapiens) (Q13464 2-1354 limits assumed): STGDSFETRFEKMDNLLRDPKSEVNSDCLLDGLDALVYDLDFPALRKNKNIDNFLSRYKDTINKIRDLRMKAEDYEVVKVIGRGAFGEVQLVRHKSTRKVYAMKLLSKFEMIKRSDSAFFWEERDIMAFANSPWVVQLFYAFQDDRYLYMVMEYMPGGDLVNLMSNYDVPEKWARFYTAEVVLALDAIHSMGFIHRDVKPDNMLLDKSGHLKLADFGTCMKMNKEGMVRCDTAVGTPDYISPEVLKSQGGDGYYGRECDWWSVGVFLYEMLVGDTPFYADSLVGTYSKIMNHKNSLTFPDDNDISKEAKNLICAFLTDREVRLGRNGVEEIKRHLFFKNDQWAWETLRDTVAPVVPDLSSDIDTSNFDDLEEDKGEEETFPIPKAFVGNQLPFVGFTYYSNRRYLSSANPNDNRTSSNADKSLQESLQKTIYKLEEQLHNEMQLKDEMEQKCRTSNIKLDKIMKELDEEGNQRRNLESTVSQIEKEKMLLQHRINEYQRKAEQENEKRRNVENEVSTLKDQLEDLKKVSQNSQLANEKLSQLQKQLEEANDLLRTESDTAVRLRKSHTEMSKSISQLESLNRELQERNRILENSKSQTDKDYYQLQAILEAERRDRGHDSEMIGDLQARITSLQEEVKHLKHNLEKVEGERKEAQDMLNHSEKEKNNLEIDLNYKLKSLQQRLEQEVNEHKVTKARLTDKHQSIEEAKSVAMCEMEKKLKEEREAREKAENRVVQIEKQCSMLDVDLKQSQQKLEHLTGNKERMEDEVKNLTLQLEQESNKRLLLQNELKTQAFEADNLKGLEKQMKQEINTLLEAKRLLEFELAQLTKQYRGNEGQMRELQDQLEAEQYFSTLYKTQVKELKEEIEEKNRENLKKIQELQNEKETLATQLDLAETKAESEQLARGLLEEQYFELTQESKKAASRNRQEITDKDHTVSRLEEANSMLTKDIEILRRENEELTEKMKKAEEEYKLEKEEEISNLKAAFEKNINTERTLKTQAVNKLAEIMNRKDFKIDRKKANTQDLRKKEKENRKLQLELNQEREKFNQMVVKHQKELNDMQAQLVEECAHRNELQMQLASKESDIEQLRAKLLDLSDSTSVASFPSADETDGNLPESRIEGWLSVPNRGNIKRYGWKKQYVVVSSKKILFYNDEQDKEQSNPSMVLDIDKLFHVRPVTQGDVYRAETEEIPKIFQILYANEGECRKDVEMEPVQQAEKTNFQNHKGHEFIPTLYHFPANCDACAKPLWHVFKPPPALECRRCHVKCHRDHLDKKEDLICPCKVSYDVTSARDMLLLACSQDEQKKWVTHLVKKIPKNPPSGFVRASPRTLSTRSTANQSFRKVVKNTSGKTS

With `O=C(Nc1ccn(-c2ccnc(F)c2)n1)C1(c2ccccc2F)CC1` the Vd [1] was 4 L/kg, the Activity [2] was “Toxic” and the inhibition [3] was > 50%. For the same compound, the Activity [4] was “Toxic”, the clearance [5] was 7 mL/min/kg and the IC50 [6] was > 200000 nM. For the same compound, the Activity (Mus musculus) was “Active”, the inhibition [7] was > 50% and the IC50 [8] was 13 nM. For the same compound, the Activity [9] was “Toxic”, the half-life [10] was 3.5 h and the Activity (Fibroblast [11]) was “Active”. The Activity (Fibroblast [12]) was “Active”, the IC50 [13] was 17 nM and the CC50 (HepG2) was > 100000 nM. For the same compound, the “fold change (FC)” value [14] was 10, the Activity [15] was “Toxic” and the Activity [16] was <6%. For the same compound, the Activity [17] was 90%, the Activity [18] was “Toxic” and the Activity [19] was “Toxic”. For the same compound, the Activity [20] was 67%, the half-life [21] was 3.5 h and the Activity [22] was 57%. For the same compound, the Activity [23] was 82% and the half-life [24] was 5.4 h.
